Measurements reported in patent US8481497B2, “Therapeutic agent for cancer, and method for treatment of cancer” (Sapporo Medical University, priority 2007, dated 2013).

B1: interferon-gamma: type II interferon, a cytokine (protein, UniProt P01579 24-161, looked up)
Interferon gamma: QDPYVKEAENLKKYFNAGHSDVADNGTLFLGILKNWKEESDRKIMQSQIVSFYFKLFKNFKDDQSIQKSVETIKEDMNVKFFNSNKKKRDDFEKLTNYSVTDLNVQRKAIHELIQVMAELSPAAKTGKRKRSQMLFRG

Key:
FGFR1 in KMS12BM cells = assay: FGFR1 expression at mRNA level in multiple myeloma cell line by DNA array; format: cell-based; conditions: 1 micro M decitabine (72 hours) and/or 0.5 micro g/mL ADR (24 hours)
Description: Using a DNA array, 1 micro M decitabine and/or 0.5 micro g/mL ADR was administered to KMS12BM cells and a change in expression of FGFR1 at the mRNA level was examined 72 hours after administration of decitabine and 24 hours after administration of ADR. In the graph, the expression level ratio relative to the expression level in the cell line to which no drug was administered is shown on the vertical axis. In the graph, the decitabine administration group is shown by Aza.

FGFR1 = conditions: human hepatic stellate cells; cited from earlier work

Row | Molecule | expression level of FGFR1 at the mRNA level (FGFR1 in KMS12BM cells) | expression of FGFR1 (FGFR1)
1 | COc1cccc2c1C(=O)c1c(O)c3c(c(O)c1C2=O)C[C@@](O)(C(=O)CO)C[C@@H]3O[C@H]1C[C@H](N)[C@H](O)[C@H](C)O1 [ADR, adriamycin] | increased | 
2 | B1 |  | reduces
